# Data reported in patent US4431638A, “Poly-cation salts of bis(or tris)[4-0-monohexose-thio]-arylene sulfate derivatives” (American Cyanamid Company, priority 1982, dated 1984).
# Where two headings read alike, the source gives them in different places.
# Key:
# activated human C1 = activated human C1 (Homo sapiens, UniProt P09871); assay: Test Code 026 (C1 inhibitor); assay type: biochemical; conditions: serial twofold dilution assay; higher well number indicates higher activity
# Description: (§1) Percent inhibition is calculated by comparison with simultaneous controls.
# (§2) *Tests identified by code herein. For a discussion of the tests, see
# (§3) **Activity in wells, a serial dilution assay; higher well number indicate
# [1] = system: late components of human complement (C3-C9); assay: Test Code 035 (C3-C9 inhibitor), lysis of EAC 142; assay type: biochemical; conditions: serial twofold dilution assay; higher well number indicates higher activity
# Description: as §1, §2, §3
# [2] = system: complement activity of sera; assay: Guinea Pig Intraperitoneal Test (GPIP); assay type: in vivo; conditions: 200 mg/kg i.p.; for inhibition at 200 mg/kg: Cavia porcellus, ip
# Description: as §1
# complement system = conditions: Br. J. Exp. Pathol. 33: 327 (1952); cited from earlier work
# [3] = system: hereditary angioneurotic edema; conditions: known complement inhibitors, literature reports; cited from earlier work
# [4] = system: total hemolytic complement activity; conditions: both in vitro and in vivo; cited from earlier work
compound,measurement,setting,value
"O=C(Nc1ccc(S[C@@H]2O[C@H](COS(=O)(=O)O)[C@@H](OS(=O)(=O)O)[C@H](OS(=O)(=O)O)[C@H]2OS(=O)(=O)O)cc1)c1cc(C(=O)Nc2ccc(S[C@@H]3O[C@H](COS(=O)(=O)O)[C@@H](OS(=O)(=O)O)[C@H](OS(=O)(=O)O)[C@H]3OS(=O)(=O)O)cc2)cc(C(=O)Nc2ccc(S[C@@H]3O[C@H](COS(=O)(=O)O)[C@@H](OS(=O)(=O)O)[C@H](OS(=O)(=O)O)[C@H]3OS(=O)(=O)O)cc2)c1.[Na].[Na].[Na].[Na].[Na].[Na].[Na].[Na].[Na].[Na].[Na].[Na] [Dodecasodium N,N',N""-tris[4-[(2,3,4,6-tetra-O-sulfo-β-D-glucopyranosyl)thio]phenyl]-1,3,5-benzenetricarboxamide]",In vitro Activity C-1 026 Wells,activated human C1,4 Wells
same,In vitro Activity C-Late 035 Wells,[1],1 Wells
"O=S(=O)(O)OC[C@H]1O[C@@H](Sc2ccc(NS(=O)(=O)c3cc(S(=O)(=O)Nc4ccc(S[C@@H]5O[C@H](COS(=O)(=O)O)[C@@H](OS(=O)(=O)O)[C@H](OS(=O)(=O)O)[C@H]5OS(=O)(=O)O)cc4)cc(S(=O)(=O)Nc4ccc(S[C@@H]5O[C@H](COS(=O)(=O)O)[C@@H](OS(=O)(=O)O)[C@H](OS(=O)(=O)O)[C@H]5OS(=O)(=O)O)cc4)c3)cc2)[C@H](OS(=O)(=O)O)[C@@H](OS(=O)(=O)O)[C@@H]1OS(=O)(=O)O.[Na].[Na].[Na].[Na].[Na].[Na].[Na].[Na].[Na].[Na].[Na].[Na] [Dodecasodium N,N',N""-tris[4-[(2,3,4,6-tetra-O-sulfo-β-D-glucopyranosyl)thio]phenyl]-1,3,5-benzenetrisulfonamide]",In vitro Activity C-1 026 Wells,activated human C1,10 Wells
same,In vitro Activity C-Late 035 Wells,[1],2 Wells
same,"In vivo Activity (Guinea Pig % Inhibition) Intraperitoneal, 2 hours",[2]; serum complement 2 hours after injection,93%
same,"In vivo Activity (Guinea Pig % Inhibition) Intraperitoneal, 6 hours",[2]; serum complement 6 hours after injection,76%
same,inhibition at 200 mg/kg,"[2]; 2 h, serum complement 2 hours after injection, read-out: In vivo Activity (Guinea Pig % Inhibition) Intraperitoneal, 2 hours",91%
same,inhibition at 200 mg/kg,"[2]; 6 h, serum complement 6 hours after injection, read-out: In vivo Activity (Guinea Pig % Inhibition) Intraperitoneal, 6 hours",91%
same,inhibition at 200 mg/kg,"[2]; 24 h, serum complement 24 hours after injection, read-out: In vivo Activity (Guinea Pig % Inhibition) Intraperitoneal, 24 hours",87%
"O=S(=O)(O)OC[C@H]1O[C@@H](Sc2ccc(NS(=O)(=O)c3ccc4c(S(=O)(=O)Nc5ccc(S[C@@H]6O[C@H](COS(=O)(=O)O)[C@@H](OS(=O)(=O)O)[C@H](OS(=O)(=O)O)[C@H]6OS(=O)(=O)O)cc5)cc(S(=O)(=O)Nc5ccc(S[C@@H]6O[C@H](COS(=O)(=O)O)[C@@H](OS(=O)(=O)O)[C@H](OS(=O)(=O)O)[C@H]6OS(=O)(=O)O)cc5)cc4c3)cc2)[C@H](OS(=O)(=O)O)[C@@H](OS(=O)(=O)O)[C@@H]1OS(=O)(=O)O [Dodecasodium N,N',N""-tris[4-[(2,3,4,6-tetra-O-sulfo-β-D-glucopyranosyl)thio]phenyl]-1,3,6-naphthylenetrisulfonamide]",In vitro Activity C-1 026 Wells,activated human C1,5 Wells
same,In vitro Activity C-Late 035 Wells,[1],1 Wells
"O=C(Nc1ccc(S[C@@H]2O[C@H](COS(=O)(=O)O)[C@@H](OS(=O)(=O)O)[C@H](OS(=O)(=O)O)[C@H]2OS(=O)(=O)O)cc1)c1ccc(C(=O)Nc2ccc(S[C@@H]3O[C@H](COS(=O)(=O)O)[C@@H](OS(=O)(=O)O)[C@H](OS(=O)(=O)O)[C@H]3OS(=O)(=O)O)cc2)cc1.[Na].[Na].[Na].[Na].[Na].[Na].[Na].[Na] [Octasodium N,N'-bis[4-[(2,3,4,6-tetra-O-sulfo-β-D-glucopyranosyl)thio]phenyl]-1,4-benzenedicarboxamide]",In vitro Activity C-1 026 Wells,activated human C1,4 Wells
same,In vitro Activity C-Late 035 Wells,[1],1 Wells
"Nc1ccc2cc(S(=O)(=O)[O-])cc(O)c2c1N=Nc1ccc(NC(=O)Nc2ccc(N=Nc3c(N)ccc4cc(S(=O)(=O)[O-])cc(O)c34)c(S(=O)(=O)[O-])c2)cc1S(=O)(=O)[O-].[Na+].[Na+].[Na+].[Na+] [chlorazol fast pink, 3,3'-ureylenebis[6-(2-amino-8-hydroxy-6-sulfo-1-naphthylazo)benzenesulfonic acid], tetrasodium salt]",anticomplementary effect,complement system,anticomplementary effect
NCCCCCC(=O)O [epsilon-aminocaproic acid],success in the treatment of hereditary angioneurotic edema,[3],used with success
NC[C@H]1CC[C@H](C(=O)O)CC1 [tranexamic acid],success in the treatment of hereditary angioneurotic edema,[3],used with success
heparin,anticomplementary effect,complement system,anticomplementary effect
pentosan-polysulfoester,"anticomplementary activity on human serum, judged by reduction in total hemolytic complement activity",[4],anticomplementary activity
